The source of these data is ChEMBL document CHEMBL5291721, “A preclinical secondary pharmacology resource illuminates target-adverse drug reaction associations of marketed drugs” (Nat Commun, 2023).

Some targets named below: Vasopressin V2 receptor (Homo sapiens, UniProt P30518); Melanocortin receptor 3 (Homo sapiens, UniProt P41968); Motilin receptor (Homo sapiens, UniProt O43193); D(3) dopamine receptor (Homo sapiens, UniProt P35462); Vasopressin V1a receptor (Homo sapiens, UniProt P37288).
Test [1] addresses cGMP-inhibited 3',5'-cyclic phosphodiesterase 3A (Homo sapiens, UniProt Q14432). Type of test: functional.
The target of test [2] is T1, Alpha-2A adrenergic receptor (Homo sapiens, UniProt P08913).
T1 sequence (P08913 whole entry): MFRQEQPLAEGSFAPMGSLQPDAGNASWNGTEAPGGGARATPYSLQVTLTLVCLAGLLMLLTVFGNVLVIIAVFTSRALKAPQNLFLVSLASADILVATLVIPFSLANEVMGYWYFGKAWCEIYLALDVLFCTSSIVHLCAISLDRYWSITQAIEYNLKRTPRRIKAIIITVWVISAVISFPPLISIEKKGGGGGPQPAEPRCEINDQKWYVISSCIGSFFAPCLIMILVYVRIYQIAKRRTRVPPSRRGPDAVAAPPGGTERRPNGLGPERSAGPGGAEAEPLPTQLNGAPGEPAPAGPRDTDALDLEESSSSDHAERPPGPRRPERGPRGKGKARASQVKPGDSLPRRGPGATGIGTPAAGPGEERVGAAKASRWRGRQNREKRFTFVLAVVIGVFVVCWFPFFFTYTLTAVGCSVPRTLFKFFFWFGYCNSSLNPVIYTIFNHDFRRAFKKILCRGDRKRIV
The test is classed as functional, cell-based.

The target of test [3] is T2, Alpha-2C adrenergic receptor (Homo sapiens, UniProt P18825).
T2 sequence (P18825 whole entry): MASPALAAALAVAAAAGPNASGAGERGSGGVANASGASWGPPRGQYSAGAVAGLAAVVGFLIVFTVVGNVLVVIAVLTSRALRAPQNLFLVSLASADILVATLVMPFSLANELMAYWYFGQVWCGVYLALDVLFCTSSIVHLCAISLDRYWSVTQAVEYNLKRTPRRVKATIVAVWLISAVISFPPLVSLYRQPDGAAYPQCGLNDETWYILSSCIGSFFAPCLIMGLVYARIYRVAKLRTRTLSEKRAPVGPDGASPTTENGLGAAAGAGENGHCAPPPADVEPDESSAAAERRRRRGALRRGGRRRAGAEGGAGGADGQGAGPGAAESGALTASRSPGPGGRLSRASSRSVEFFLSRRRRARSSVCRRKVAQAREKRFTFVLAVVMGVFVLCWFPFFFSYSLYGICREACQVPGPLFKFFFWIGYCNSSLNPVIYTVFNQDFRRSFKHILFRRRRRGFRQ
The test is classed as functional.

Test [4] deals with T3, Neuropeptide Y receptor type 1 (Homo sapiens, UniProt P25929).
T3 sequence (P25929 whole entry): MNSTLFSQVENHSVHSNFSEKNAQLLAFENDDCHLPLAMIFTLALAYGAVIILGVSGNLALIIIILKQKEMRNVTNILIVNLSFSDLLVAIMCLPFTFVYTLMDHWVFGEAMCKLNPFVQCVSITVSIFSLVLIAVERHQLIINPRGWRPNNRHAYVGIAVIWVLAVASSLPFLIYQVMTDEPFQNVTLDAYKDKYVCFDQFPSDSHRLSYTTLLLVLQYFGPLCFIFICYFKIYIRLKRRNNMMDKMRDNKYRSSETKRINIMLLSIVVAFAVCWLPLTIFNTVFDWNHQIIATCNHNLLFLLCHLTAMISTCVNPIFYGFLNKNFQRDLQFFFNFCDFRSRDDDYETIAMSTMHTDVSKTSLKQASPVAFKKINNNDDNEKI

The next test deals with Cannabinoid receptor 1 (Homo sapiens, UniProt P21554). Type of test: functional, cell-based.
Another test has as its target T4, Adenosine receptor A3 (Homo sapiens, UniProt P0DMS8).
T4 sequence (P0DMS8 whole entry): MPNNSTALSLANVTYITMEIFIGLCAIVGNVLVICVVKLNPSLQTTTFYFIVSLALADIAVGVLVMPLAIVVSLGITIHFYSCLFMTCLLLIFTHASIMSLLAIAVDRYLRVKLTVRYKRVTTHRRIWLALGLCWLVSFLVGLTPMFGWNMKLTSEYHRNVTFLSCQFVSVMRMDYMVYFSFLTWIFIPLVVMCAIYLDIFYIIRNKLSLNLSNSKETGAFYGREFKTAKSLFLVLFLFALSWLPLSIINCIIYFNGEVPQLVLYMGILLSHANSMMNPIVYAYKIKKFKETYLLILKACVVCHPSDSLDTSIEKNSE

The next test concerns the target D(1A) dopamine receptor (Homo sapiens, UniProt P21728). Type of test: functional, cell-based.
For test [5], the target named is 3',5'-cyclic-AMP phosphodiesterase 4D (Homo sapiens, UniProt Q08499). The test is classed as functional.
Test [6] has as its target Sodium-dependent dopamine transporter (Homo sapiens, UniProt Q01959).
Test [7] deals with Voltage-gated inwardly rectifying potassium channel KCNH2 (Homo sapiens, UniProt Q12809). The test is classed as functional. The settings on record: read-out: AC50.

Each structure is given as a SMILES string.
Also: assay procedure not described here.

Sequence of cGMP-inhibited 3',5'-cyclic phosphodiesterase 3A (Q14432 whole entry): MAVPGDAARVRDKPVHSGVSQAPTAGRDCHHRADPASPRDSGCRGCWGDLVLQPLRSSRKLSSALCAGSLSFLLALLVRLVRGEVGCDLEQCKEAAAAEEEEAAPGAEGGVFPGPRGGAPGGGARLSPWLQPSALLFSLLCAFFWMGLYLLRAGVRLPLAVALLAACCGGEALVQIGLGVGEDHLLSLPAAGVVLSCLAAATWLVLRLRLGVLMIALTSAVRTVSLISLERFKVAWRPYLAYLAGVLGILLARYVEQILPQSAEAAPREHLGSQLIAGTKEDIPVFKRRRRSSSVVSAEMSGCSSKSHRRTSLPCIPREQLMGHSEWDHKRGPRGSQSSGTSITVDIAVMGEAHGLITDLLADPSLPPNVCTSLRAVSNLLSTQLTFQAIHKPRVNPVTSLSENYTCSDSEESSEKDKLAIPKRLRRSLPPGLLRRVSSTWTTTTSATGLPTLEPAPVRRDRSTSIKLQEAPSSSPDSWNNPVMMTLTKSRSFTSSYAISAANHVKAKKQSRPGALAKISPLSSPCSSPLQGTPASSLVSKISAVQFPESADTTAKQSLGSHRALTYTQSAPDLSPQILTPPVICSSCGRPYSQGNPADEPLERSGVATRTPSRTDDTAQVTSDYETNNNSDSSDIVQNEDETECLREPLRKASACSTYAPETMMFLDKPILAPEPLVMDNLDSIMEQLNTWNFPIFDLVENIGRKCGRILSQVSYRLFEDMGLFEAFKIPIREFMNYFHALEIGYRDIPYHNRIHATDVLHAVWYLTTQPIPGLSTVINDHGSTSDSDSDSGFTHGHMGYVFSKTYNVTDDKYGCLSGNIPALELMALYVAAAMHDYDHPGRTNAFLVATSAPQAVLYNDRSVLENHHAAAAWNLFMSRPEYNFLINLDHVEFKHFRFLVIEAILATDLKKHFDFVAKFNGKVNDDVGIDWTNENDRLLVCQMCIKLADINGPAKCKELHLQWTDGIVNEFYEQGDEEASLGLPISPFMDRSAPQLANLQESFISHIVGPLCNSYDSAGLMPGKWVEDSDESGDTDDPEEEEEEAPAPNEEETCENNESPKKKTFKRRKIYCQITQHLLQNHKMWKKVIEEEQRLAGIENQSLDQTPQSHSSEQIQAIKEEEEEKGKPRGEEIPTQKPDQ
Sequence of Motilin receptor (O43193 whole entry): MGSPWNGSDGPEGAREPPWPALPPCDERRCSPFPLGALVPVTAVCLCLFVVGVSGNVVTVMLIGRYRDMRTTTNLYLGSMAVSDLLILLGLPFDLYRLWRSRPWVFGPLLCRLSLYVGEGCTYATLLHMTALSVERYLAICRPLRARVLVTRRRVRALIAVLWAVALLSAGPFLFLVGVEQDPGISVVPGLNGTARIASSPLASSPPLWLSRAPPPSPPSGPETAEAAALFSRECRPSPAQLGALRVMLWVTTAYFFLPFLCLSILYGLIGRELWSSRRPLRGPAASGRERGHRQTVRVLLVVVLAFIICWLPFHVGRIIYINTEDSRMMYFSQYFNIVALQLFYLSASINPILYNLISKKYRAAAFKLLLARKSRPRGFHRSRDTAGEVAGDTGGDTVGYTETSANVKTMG
Sequence of Melanocortin receptor 3 (P41968 whole entry): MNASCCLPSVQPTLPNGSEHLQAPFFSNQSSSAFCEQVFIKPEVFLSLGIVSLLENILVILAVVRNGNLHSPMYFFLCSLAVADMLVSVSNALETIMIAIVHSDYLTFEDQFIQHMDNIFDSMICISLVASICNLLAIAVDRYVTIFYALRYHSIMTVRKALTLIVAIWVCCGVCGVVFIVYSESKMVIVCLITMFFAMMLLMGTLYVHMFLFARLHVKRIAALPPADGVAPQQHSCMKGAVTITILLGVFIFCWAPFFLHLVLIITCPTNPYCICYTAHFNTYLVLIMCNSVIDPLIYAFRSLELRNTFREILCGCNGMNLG
Sequence of Cannabinoid receptor 1 (P21554 whole entry): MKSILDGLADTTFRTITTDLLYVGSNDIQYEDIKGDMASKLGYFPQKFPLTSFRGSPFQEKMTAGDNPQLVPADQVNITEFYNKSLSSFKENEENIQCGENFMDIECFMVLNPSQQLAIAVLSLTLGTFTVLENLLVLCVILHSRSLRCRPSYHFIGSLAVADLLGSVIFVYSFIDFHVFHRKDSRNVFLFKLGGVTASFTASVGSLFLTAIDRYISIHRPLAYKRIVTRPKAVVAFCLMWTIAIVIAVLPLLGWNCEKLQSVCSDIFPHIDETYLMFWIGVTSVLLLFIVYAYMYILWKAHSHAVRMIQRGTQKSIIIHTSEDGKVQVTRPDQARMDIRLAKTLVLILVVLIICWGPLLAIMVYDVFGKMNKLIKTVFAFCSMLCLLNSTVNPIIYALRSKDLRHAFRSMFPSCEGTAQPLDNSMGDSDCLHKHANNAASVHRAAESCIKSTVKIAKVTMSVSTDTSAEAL
Sequence of D(3) dopamine receptor (P35462 whole entry): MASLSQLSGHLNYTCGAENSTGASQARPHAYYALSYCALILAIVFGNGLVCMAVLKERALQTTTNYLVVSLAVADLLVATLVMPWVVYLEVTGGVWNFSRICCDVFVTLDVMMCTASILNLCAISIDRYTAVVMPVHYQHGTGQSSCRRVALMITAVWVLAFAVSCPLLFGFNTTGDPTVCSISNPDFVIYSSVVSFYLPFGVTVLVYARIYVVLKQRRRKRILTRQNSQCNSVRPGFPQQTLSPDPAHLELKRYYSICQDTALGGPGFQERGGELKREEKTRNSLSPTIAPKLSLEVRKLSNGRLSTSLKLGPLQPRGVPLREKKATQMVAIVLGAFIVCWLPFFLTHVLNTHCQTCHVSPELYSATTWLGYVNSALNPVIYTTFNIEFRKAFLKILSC
Sequence of Vasopressin V2 receptor (P30518 whole entry): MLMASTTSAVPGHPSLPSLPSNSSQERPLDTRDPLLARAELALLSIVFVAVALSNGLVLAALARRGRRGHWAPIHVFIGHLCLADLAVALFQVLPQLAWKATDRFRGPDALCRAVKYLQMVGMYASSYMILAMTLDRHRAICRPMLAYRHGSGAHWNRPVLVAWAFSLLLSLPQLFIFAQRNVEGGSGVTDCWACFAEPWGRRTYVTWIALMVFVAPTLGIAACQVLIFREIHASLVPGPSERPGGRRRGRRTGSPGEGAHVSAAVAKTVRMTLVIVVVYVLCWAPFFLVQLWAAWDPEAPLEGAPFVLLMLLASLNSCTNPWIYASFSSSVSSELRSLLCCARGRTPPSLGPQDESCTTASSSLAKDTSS
Sequence of Sodium-dependent dopamine transporter (Q01959 whole entry): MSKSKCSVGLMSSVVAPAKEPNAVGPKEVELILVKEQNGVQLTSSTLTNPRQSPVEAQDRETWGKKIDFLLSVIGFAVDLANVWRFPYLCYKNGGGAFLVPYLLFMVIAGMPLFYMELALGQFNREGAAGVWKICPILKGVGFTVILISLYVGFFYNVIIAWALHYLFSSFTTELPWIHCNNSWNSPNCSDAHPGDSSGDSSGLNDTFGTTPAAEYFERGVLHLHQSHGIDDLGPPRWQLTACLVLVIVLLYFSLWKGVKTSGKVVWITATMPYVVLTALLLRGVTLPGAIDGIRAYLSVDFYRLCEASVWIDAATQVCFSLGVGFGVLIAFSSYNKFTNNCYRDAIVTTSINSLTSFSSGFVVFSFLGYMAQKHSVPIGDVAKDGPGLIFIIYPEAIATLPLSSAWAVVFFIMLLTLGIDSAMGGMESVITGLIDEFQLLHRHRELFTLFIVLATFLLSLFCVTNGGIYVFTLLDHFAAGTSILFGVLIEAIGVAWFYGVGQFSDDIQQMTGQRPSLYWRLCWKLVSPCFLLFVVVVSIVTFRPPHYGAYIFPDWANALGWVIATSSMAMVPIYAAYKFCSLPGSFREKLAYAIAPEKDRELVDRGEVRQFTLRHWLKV
Sequence of D(1A) dopamine receptor (P21728 whole entry): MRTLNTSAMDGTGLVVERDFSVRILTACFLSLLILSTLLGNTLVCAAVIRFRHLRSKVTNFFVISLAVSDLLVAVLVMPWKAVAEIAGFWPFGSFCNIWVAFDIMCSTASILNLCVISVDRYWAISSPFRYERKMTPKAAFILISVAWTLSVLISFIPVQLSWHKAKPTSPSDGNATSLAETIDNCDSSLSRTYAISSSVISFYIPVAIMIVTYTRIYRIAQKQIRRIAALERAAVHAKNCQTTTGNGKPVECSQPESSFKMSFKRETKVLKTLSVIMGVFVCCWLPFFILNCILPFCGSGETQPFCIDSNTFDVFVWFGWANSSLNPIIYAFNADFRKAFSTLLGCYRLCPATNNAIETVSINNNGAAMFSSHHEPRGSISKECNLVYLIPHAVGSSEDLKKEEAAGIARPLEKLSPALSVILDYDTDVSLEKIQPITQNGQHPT
Sequence of 3',5'-cyclic-AMP phosphodiesterase 4D (Q08499 whole entry): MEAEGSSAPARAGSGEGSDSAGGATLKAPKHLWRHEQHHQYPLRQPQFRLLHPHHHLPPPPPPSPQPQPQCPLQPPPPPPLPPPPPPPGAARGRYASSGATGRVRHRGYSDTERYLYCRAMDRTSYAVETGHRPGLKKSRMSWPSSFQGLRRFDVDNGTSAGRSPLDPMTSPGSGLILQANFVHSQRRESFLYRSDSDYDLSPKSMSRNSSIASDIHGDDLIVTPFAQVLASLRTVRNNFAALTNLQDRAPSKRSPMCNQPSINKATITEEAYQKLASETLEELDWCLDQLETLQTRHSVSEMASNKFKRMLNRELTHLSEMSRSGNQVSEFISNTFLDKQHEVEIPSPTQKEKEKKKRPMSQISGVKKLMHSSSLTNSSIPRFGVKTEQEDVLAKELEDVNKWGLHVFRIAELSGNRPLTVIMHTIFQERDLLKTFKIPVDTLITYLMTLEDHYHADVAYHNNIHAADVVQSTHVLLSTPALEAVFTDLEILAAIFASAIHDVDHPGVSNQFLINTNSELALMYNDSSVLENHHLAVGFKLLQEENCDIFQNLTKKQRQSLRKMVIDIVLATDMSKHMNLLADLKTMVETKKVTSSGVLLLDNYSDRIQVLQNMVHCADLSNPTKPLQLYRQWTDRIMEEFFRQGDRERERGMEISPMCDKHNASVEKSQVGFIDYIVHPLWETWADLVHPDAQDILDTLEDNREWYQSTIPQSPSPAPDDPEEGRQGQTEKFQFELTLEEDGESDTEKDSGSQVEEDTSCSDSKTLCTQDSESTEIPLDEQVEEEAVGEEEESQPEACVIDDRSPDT

As a reminder, the AC50 is the midpoint of the concentration-response curve, whichever way the signal moves. `CC=CC(=O)N(CC)c1ccccc1C`: the AC50 in test [1] is above 30 µM; on Vasopressin V2 receptor it was above 10 µM; in test [2], above 10 µM; at Melanocortin receptor 3, above 10 µM; in test [3] it was above 10 µM; in test [4] it was above 10 µM. The AC50 was above 10 µM on Motilin receptor; above 30 µM on D(3) dopamine receptor; above 30 µM at Cannabinoid receptor 1; above 10 µM at Adenosine receptor A3; above 10 µM on D(1A) dopamine receptor; above 30 µM in test [5]. Besides, the results for the concentration at half-maximal activity (AC50) in test [6] and in test [7] were above 10 µM and above 30 µM, respectively.

On to `NCC[C@H](O)C(=O)N[C@@H]1C[C@H](N)[C@@H](O[C@H]2O[C@H](CN)[C@@H](O)[C@H](O)[C@H]2O)[C@H](O)[C@H]1O[C@H]1O[C@H](CO)[C@@H](O)[C@H](N)[C@H]1O` [AMIKACIN], for which the concentration at half-maximal activity (AC50) in test [1] is above 30 µM; on Vasopressin V2 receptor it was above 10 µM; in test [2], above 10 µM; on Melanocortin receptor 3 it was above 10 µM; in test [3], above 10 µM; in test [4], above 10 µM. The AC50 on Motilin receptor is above 10 µM; on D(3) dopamine receptor, above 30 µM; at Adenosine receptor A3 it was above 10 µM; on D(1A) dopamine receptor, above 10 µM; in test [5] it was above 30 µM; in test [6], above 10 µM. Besides, in [7], the half-maximal activity concentration (AC50) is above 30 µM.

In the case of `CCOC(=O)OC(C)OC1=C(C(=O)Nc2ccccn2)N(C)S(=O)(=O)c2ccccc21` (configuration not stated) [AMPIROXICAM], the AC50 (in test [1]; on Vasopressin V2 receptor; in [2]; on Melanocortin receptor 3; in test [3]; in test [4]) was above 30 µM each time. For the same molecule, the concentration at half-maximal activity (AC50) (at Motilin receptor; on D(3) dopamine receptor; at Cannabinoid receptor 1; on Adenosine receptor A3; on D(1A) dopamine receptor; in test [5]) was above 30 µM each time. Besides, the half-maximal activity concentration (AC50) in [6] and in test [7] was above 30 µM in each case.

Regarding `C#C[C@]1(O)CC[C@H]2[C@@H]3CCC4=Cc5oncc5C[C@]4(C)[C@H]3CC[C@@]21C` [DANAZOL], the AC50 (at Vasopressin V2 receptor; in [2]; at Melanocortin receptor 3; in [3]; in [4]; at Motilin receptor) was above 10 µM in each case. Further, the half-maximal activity concentration (AC50) on D(3) dopamine receptor is above 30 µM; on Adenosine receptor A3, above 30 µM; in test [6] it was above 10 µM; in test [7] it was above 30 µM.

On to `Cc1ccc(S(=O)(=O)NC(=O)NN2CC3CCCC3C2)cc1` (configuration not stated) [GLICLAZIDE], for which the AC50 was above 30 µM in test [1]; above 10 µM on Vasopressin V2 receptor; above 10 µM in [2]; above 10 µM at Melanocortin receptor 3; above 30 µM in test [3]; above 10 µM in test [4]. Moreover, the AC50 was above 10 µM at Motilin receptor; above 30 µM on D(3) dopamine receptor; above 10 µM on Adenosine receptor A3; above 30 µM on D(1A) dopamine receptor; above 30 µM in [5]; above 10 µM in [6]. The AC50 in [7] was above 30 µM.

In the case of `CC(C)Cn1cnc2c(N)nc3ccccc3c21` [IMIQUIMOD], the concentration at half-maximal activity (AC50) is above 30 µM in [1]; above 10 µM on Vasopressin V2 receptor; above 10 µM in test [2]; above 30 µM on Melanocortin receptor 3; above 10 µM in [3]; above 10 µM in test [4]. In addition, the AC50 on Motilin receptor was above 10 µM; on D(3) dopamine receptor, above 30 µM; at Adenosine receptor A3 it was above 30 µM; on D(1A) dopamine receptor, above 10 µM; in test [5] it was 4.03 µM; in test [6], above 30 µM. Besides, in test [7], the AC50 is 28.3 µM.

Regarding `Nc1nc(N)nc(-c2cc(Cl)ccc2Cl)n1` [IRSOGLADINE], the AC50 (in test [1]; at Vasopressin V2 receptor; in test [2]; on Melanocortin receptor 3; in test [3]; in [4]) was above 30 µM each time. The concentration at half-maximal activity (AC50) on Motilin receptor was above 30 µM; at Cannabinoid receptor 1 it was above 30 µM; on Adenosine receptor A3, above 30 µM; on D(1A) dopamine receptor, above 30 µM; in test [5], 21.4 µM; in [6], above 30 µM. In addition, in test [7], the AC50 was above 30 µM.

Take `C[C@](N)(Cc1ccc(O)c(O)c1)C(=O)O` [METHYLDOPA]: the AC50 in test [1] is above 30 µM; at Vasopressin V2 receptor, above 10 µM; in test [2], above 10 µM; on Melanocortin receptor 3 it was above 10 µM; in test [3], above 10 µM; in test [4] it was above 10 µM. Further, the AC50 on Motilin receptor was above 10 µM; on D(3) dopamine receptor, above 30 µM; at Adenosine receptor A3, above 30 µM; at D(1A) dopamine receptor, above 30 µM; in test [5] it was above 30 µM; in test [6], above 10 µM. The AC50 in test [7] is above 30 µM.

Consider `O=C(NCCN1CCOCC1)c1ccc(Cl)cc1` [MOCLOBEMIDE], for which the concentration at half-maximal activity (AC50) in test [1] is above 30 µM; at Vasopressin V2 receptor, above 10 µM; in test [2], above 10 µM; at Melanocortin receptor 3, above 10 µM; in [3], above 10 µM; in test [4], above 10 µM. Further, the AC50 at Motilin receptor was above 10 µM; at D(3) dopamine receptor, above 30 µM; on Adenosine receptor A3 it was above 10 µM; on D(1A) dopamine receptor, above 10 µM; in test [5], above 30 µM; in [6] it was above 10 µM. Also, in [7], the AC50 was above 30 µM.

With `CCCN(CCC)C(=O)C(CCC(=O)O)NC(=O)c1ccccc1` (configuration not stated) [PROGLUMIDE], the concentration at half-maximal activity (AC50) in [1] is above 30 µM; on Vasopressin V2 receptor it was above 30 µM; in [2], above 10 µM; at Melanocortin receptor 3, above 30 µM; in test [3], above 30 µM; at Vasopressin V1a receptor it was above 30 µM. The half-maximal activity concentration (AC50) (in [4]; on Motilin receptor; on D(3) dopamine receptor; on Adenosine receptor A3; at D(1A) dopamine receptor; in test [5]) was above 30 µM throughout. Also, the half-maximal activity concentration (AC50) in [6] and in test [7] was above 30 µM in each case.

On to `C[C@]12CC[C@H]3[C@@H](CCC4=CC(=O)CC[C@@]43C)[C@@H]1CC[C@@H]2O` [TESTOSTERONE], for which the AC50 is above 30 µM in [1]; above 10 µM on Vasopressin V2 receptor; above 10 µM in test [2]; above 10 µM at Melanocortin receptor 3; above 10 µM in test [3]; above 10 µM in [4]. Besides, the AC50 on Motilin receptor was above 10 µM; at D(3) dopamine receptor, above 30 µM; at Adenosine receptor A3 it was above 10 µM; on D(1A) dopamine receptor, above 30 µM; in test [5], above 30 µM; in test [6], above 10 µM.
